Data taken from US9943082B2, “Ternary fungicidal mixtures” (BAYER CROPSCIENCE AG, priority 2012, dated 2018).

Test system: Puccinia triticina
Test: Puccinia triticina test (wheat)/preventive
Type: in vivo
Details: preventive spray, evaluated 8 days after inoculation
Method: To produce a suitable preparation of active compound, 1 part by weight of active compound or active compound combination is mixed with the stated amounts of solvent and emulsifier, and the concentrate is diluted with water to the desired concentration.
To test for preventive activity, young plants are sprayed with the preparation of active compound or active compound combination at the stated rate of application.
After the spray coating has been dried, the plants are sprayed with a spore suspension of Puccinia triticina. The plants remain for 48 hours in an incubation cabinet at approximately 20° C. and a relative atmospheric humidity of approximately 100%.
The plants are placed in the greenhouse at a temperature of approximately 20° C. and a relative atmospheric humidity of approximately 80%.
The test is evaluated 8 days after the inoculation. 0% means an efficacy which corresponds to that of the untreated control, while an efficacy of 100% means that no disease is observed.

Row | Structure (SMILES) | Efficacy in % found (10 ppm a.i.) [%] | other results
1 | OC(Cc1ccccc1Cl)(Cn1nc[nH]c1=S)C1(Cl)CC1 (centres unmarked) [2.23 prothioconazole, prothioconazole] | – | Efficacy in % found (20 ppm a.i.): 0%
2 | CO/C=C(/C(=O)OC)c1ccccc1Oc1cc(Oc2ccccc2C#N)ncn1 [3.2 azoxystrobin, azoxystrobin] | 78 | –
3 | COC(=O)N(OC)c1ccccc1COc1ccn(-c2ccc(Cl)cc2)n1 [3.14 pyraclostrobin, pyraclostrobin] | 22 | –
4 | CON=C(C(=O)OC)c1ccccc1CON=C(C)c1cccc(C(F)(F)F)c1 [3.15 trifloxystrobin, trifloxystrobin] | 33 | –
5 | CC1CC(C)(C)c2cccc(NC(=O)c3cn(C)nc3C(F)F)c21 (centres unmarked) [(I-1), 3-(difluoromethyl)-1-methyl-N-(1,1,3-trimethyl-2,3-dihydro-1H-inden-4-yl)-1H-pyrazole-4-carboxamide] | – | Efficacy in % found (30 ppm a.i.): 78%
